Test results reported in patent US20240294542A1, “NLRP3 INFLAMMASOME INHIBITOR AND APPLICATION THEREOF” (TransThera Sciences (Nanjing), Inc., priority 2021, published 2024).

Tested on: NLRP3 inflammasomes
Test: Inhibitory activity against NLRP3 inflammasome in THP-1 cells (LPS/nigericin stimulation, IL-1β ELISA)
Assay type: cell-based
Settings: PMA-differentiated THP-1 cells; LPS 500 ng/mL 3 h, compound 1 h, nigericin 10 μg/mL 30 min; human IL-1β in supernatant by Elisa; read-out: IC50 (nM), inhibitory activities against NLRP3 in THP-1 cells
Procedure: Test Samples: The compounds of the present invention prepared according to exemplary methods.
THP-1 is Immortalized Human Macrophage Cell Line
• Test instrument: microplate reader (made from PE)
• 1. […] Culture plate coating: 100 μL polylysine solution was added into a 96-well cell culture plate, and the reaction was carried out at 37° C. for 30 min. The solution was discarded, and PBS was washed twice for later use. • 3. […] The resulting mixture was uniformly mixed, and finally diluted by 1:1000 times, and the cells were placed in a carbon dioxide cell incubator at 37° C. and cultured for 1 h. • c. Nigericin was added to each well at a final concentration of 10 μg/mL, and the plate was placed in a carbon dioxide cell incubator at 37° C. and cultured for 30 min. • d. The media in wells were transferred to a new culture plate, and then the plate was centrifuged at 3000 rpm for 5 min. Then the supernatant was transferred to a new 96-well plate. • e. The collected cell culture supernatant samples were tested for the content of human IL-1β by using a commercial Elisa kit, as specified in the instructions.

Compound	IC50 [nM]
N#Cc1ccc(-c2nnc(N[C@@H]3CCCN(C4CCOCC4)C3)c3ccccc23)c(O)c1 [Compound 124, (R)-3-hydroxy-4-(4-((1-(tetrahydro-2H-pyran-4-yl)piperidin-3-yl)amino)phthalazin-1-yl)benzonitrile]	5
Cc1ccc(-c2nnc(N[C@@H]3CCCN(C)C3)c3cc(Br)ccc23)c(O)c1 [Compound 60, (R)-2-(6-bromo-4-((1-methylpiperidin-3-yl)amino)phthalazin-1-yl)-5-methylphenol]	13
CN1CCC[C@@H](Nc2nnc(-c3ccc(C#N)cc3O)c3ccccc23)C1 [Compound 42, (R)-3-hydroxy-4-(4-((1-methylpiperidin-3-yl)amino)phthalazin-1-yl)benzonitrile]	13
Cc1ccc(-c2nnc(N[C@@H]3CCCN(C)C3)c3ccncc23)c(O)c1 [Compound 49, (R)-5-methyl-2-(1-((1-methylpiperidin-3-yl)amino)pyrido[3,4-d]pyridazin-4-yl)phenol]	9
CN1CCC[C@@H](Nc2nnc(-c3ccc(C#N)cc3O)c3ccncc23)C1 [Compound 79, (R)-3-hydroxy-4-(4-((1-methylpiperidin-3-yl)amino)pyrido[3,4-d]pyridazin-1-yl)benzonitrile]	13
CN1CCC[C@@H](Nc2nnc(-c3ccc(C(F)F)cc3O)c3c2CCCC3)C1 [Compound 15a, (R)-5-(difluoromethyl)-2-(4-((1-methylpiperidin-3-yl)amino)-5,6,7,8-tetrahydrophthalazin-1-yl)phenol]	2
Cc1ccc(-c2nnc(N[C@@H]3CCCN(C)C3)c3c2CCCCC3)c(O)c1 [Compound 26a, (R)-5-methyl-2-(4-((1-methylpiperidin-3-yl)amino)-6,7,8,9-tetrahydro-5H-cyclohepta[d]pyridazin-1-yl)phenol]	4
Cc1ccc2c(-c3ccc(Br)cc3O)nnc(N[C@@H]3CCCN(C)C3)c2c1 [Compound 88, (R)-5-bromo-2-(6-methyl-4-((1-methylpiperidin-3-yl)amino)phthalazin-1-yl)phenol]	1
Cc1ccc(-c2nnc(N[C@@H]3CCCN(C)C3)c3cc(C4CC4)ccc23)c(O)c1 [Compound 32, (R)-2-(6-cyclopropyl-4-((1-methylpiperidin-3-yl)amino)phthalazin-1-yl)-5-methylphenol]	15
CN1CCC[C@@H](Nc2nnc(-c3ccc(C4CC4)cc3O)c3c2CCCC3)C1 [Compound 5a, (R)-5-cyclopropyl-2-(4-((1-methylpiperidin-3-yl)amino)-5,6,7,8-tetrahydrophthalazin-1-yl)phenol]	5
CN1CCC[C@@H](Nc2nnc(-c3ccc(C(F)F)cc3O)c3ccccc23)C1 [Compound 87, (R)-5-(difluoromethyl)-2-(4-((1-methylpiperidin-3-yl)amino)phthalazin-1-yl)phenol]	2
CN1CCC[C@@H](Nc2nnc(-c3ccc(C#N)cc3O)c3sccc23)C1 [Compound 78, (R)-3-hydroxy-4-(4-((1-methylpiperidin-3-yl)amino)thieno[2,3-d]pyridazin-7-yl)benzonitrile]	2
CN1CCC[C@@H](Nc2nnc(-c3ccc(F)cc3O)c3c2CCCC3)C1 [Compound 24a, (R)-5-fluoro-2-(4-((1-methylpiperidin-3-yl)amino)-5,6,7,8-tetrahydrophthalazin-1-yl)phenol]	1
Cc1ccc(-c2nnc(N[C@@H]3CCCN(C)C3)c3ccccc23)c(O)c1 [Compound 1, (R)-5-methyl-2-(4-((1-methylpiperidin-3-yl)amino)phthalazin-1-yl)phenol]	1.8
Cc1ccc(-c2nnc(N[C@@H]3CCCN(C)C3)c3cc(Cl)ccc23)c(O)c1 [Compound 12, (R)-2-(6-chloro-4-((1-methylpiperidin-3-yl)amino)phthalazin-1-yl)-5-methylphenol]	4
Cc1ccc(-c2nnc(N[C@@H]3CCCN(C)C3)c3c(F)cccc23)c(O)c1 [Compound 9, (R)-2-(5-fluoro-4-((1-methylpiperidin-3-yl)amino)phthalazin-1-yl)-5-methylphenol]	3
Cc1ccc2c(-c3ccc(C#N)cc3O)nnc(N[C@@H]3CCCN(C)C3)c2c1 [Compound 55, (R)-3-hydroxy-4-(6-methyl-4-((1-methylpiperidin-3-yl)amino)phthalazin-1-yl)benzonitrile]	4
CN1CCC[C@@H](Nc2nnc(-c3ccc(C#N)cc3O)c3ccsc23)C1 [Compound 77, (R)-3-hydroxy-4-(7-((1-methylpiperidin-3-yl)amino)thieno[2,3-d]pyridazin-4-yl)benzonitrile]	2
Cc1ccc(-c2nnc(N[C@@H]3CCCN(C)C3)c3c2CCC3)c(O)c1 [Compound 3a, (R)-5-methyl-2-(4-((1-methylpiperidin-3-yl)amino)-6,7-dihydro-5H-cyclopenta[d]pyridazin-1-yl)phenol]	4
CN1CCC[C@@H](Nc2nnc(-c3ccc(F)c(F)c3O)c3c2CCCC3)C1 [Compound 31a, (R)-2,3-difluoro-6-(4-((1-methylpiperidin-3-yl)amino)-5,6,7,8-tetrahydrophthalazin-1-yl)phenol]	6
